Results from patent publication US20090220537A1, “VACCINE DELIVERY SYSTEM” (THE UNIVERSITY OF QUEENSLAND, priority 2005, published 2009).

Tests used:
RSV = assay type: in vivo, mice
[1] = system: E7-expressing TC-1 tumour cells; assay type: in vivo; conditions: H-2b mice immunised twice, 2×10^5 TC-1 cells two weeks after second immunisation; within 15 days; FIG. 6C

Sequence | Mean RSV load per ½-lung in mice with detectable infection (RSV; BALB/c mice challenged intranasally with 8×10^5 pfu RSV, lungs 4 days later, immunofocus assay) | Number of mice (%) with detectable RSV in lungs (RSV; BALB/c mice, 5 per group, challenged intranasally with 8×10^5 pfu RSV 3 weeks after immunisation, lungs 4 days later, limit of detection 5×10^2 pfu/lung, listed as M15 peptide+adjuvant) | RSV-specific immunostaining of lung cryosections (RSV; indirect immunofluorescence, 4 days after challenge, FIG. 5) | Mice that developed tumour [1]
ESYIGSINNITKQSA [M215 peptide + adjuvant] | 1.0 × 10^3 pfu | One of five | reduced staining | 
RAHYNIVTF [RAH peptide+adjuvant] |  |  |  | level of protection was consistent with that observed
